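Protocol summary: plate cells (96-well), add compound at 5 concentrations, incubate 48 h, interpolate endpoints linearly. GI50: concentration for 50% inhibition of growth. TGI: total growth inhibition.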
Key:
Test in all cases: NCI-60 cell line screen, 48 h
ACHN renal = test system: ACHN renal
HCC-2998 colon = test system: HCC-2998 colon
HCT-116 colon = test system: HCT-116 colon
HOP-62 NSCLC = test system: HOP-62 NSCLC
HOP-92 NSCLC = test system: HOP-92 NSCLC
M14 melanoma = test system: M14 melanoma
OVCAR-3 ovarian = test system: OVCAR-3 ovarian
SK-MEL-2 melanoma = test system: SK-MEL-2 melanoma
SK-MEL-28 melanoma = test system: SK-MEL-28 melanoma
U251 CNS = test system: U251 CNS

Structure (SMILES) | TGI (ACHN renal) [µM] | TGI (HCC-2998 colon) [µM] | TGI (HCT-116 colon) [µM] | TGI (HOP-62 NSCLC) [µM] | TGI (HOP-92 NSCLC) [µM] | TGI (M14 melanoma) [µM] | TGI (OVCAR-3 ovarian) [µM] | TGI (SK-MEL-2 melanoma) [µM] | TGI (SK-MEL-28 melanoma) [µM] | TGI (U251 CNS) [µM] | GI50 (ACHN renal) [µM] | GI50 (HCC-2998 colon) [µM] | GI50 (HCT-116 colon) [µM] | GI50 (HOP-62 NSCLC) [µM] | GI50 (HOP-92 NSCLC) [µM] | GI50 (M14 melanoma) [µM] | GI50 (OVCAR-3 ovarian) [µM] | GI50 (SK-MEL-2 melanoma) [µM] | GI50 (SK-MEL-28 melanoma) [µM] | GI50 (U251 CNS) [µM]
N=Nc1c(OC(=O)Nc2ccccc2)[nH]c2ccccc12 | 36.6 | 29.7 | 31.6 | 36.4 | 55.6 | 37.9 | 26.7 | 44.6 | > 100 | 30.8 | – | – | – | – | – | – | – | – | – | –
COC(=O)[C@H]1[C@H]2C[C@@H]3c4[nH]c5cc(OC)ccc5c4CCN3C[C@H]2C[C@@H](OC(=O)c2cc(OC)c(OC)c(OC)c2)[C@@H]1OC | > 100 | 47.1 | 31.5 | 28.1 | 39.9 | 30.3 | 32.9 | 38.1 | – | 28.2 | – | – | – | – | – | – | – | – | – | –
COc1cc(N2CCN(C(C)C)CC2)ccc1Nc1nc(Nc2cccc3ncccc23)c2cc[nH]c2n1 | > 25 | 9.77 | 7.11 | > 14.9 | 2.85 | 8.04 | 10.6 | 11.5 | 9.56 | 15.1 | 7.45 | 3.17 | 3.04 | 3.18 | 0.464 | 4.13 | 4.75 | 4.63 | 4.77 | 4.54
CC(C)(C)[Si](C)(C)OCC1CCC(n2cnc3c(=O)[nH]cnc32)O1 (configuration not stated) | > 100 | > 100 | > 100 | > 100 | > 100 | > 100 | > 100 | > 100 | > 100 | > 100 | – | – | – | – | – | – | – | – | – | –
COc1ccc(CN2C(=O)C(Cc3cc(OC)c(OC)c(C)c3OC)NC(=O)/C2=C/c2cc(OC)c(OC)c(C)c2OC)cc1 (configuration not stated) | > 100 | 90.9 | 60.7 | > 100 | 67.7 | 96.9 | 82.2 | 43.2 | > 100 | > 100 | – | – | – | – | – | – | – | – | – | –
CC1(C)OC(=O)[C@@](C)([C@H](O)c2ccccc2)O1 | > 100 | > 100 | > 100 | > 100 | > 100 | > 100 | > 100 | > 100 | – | > 100 | – | – | – | – | – | – | – | – | – | –
COc1ccc(C[n+]2c3ccccc3n3c4ccc(N)cc4ccc32)c(OC)c1OC | > 100 | 24.7 | 83.7 | 33.1 | 3.77 | 33.3 | 8.97 | 14.8 | 5.56 | 14.5 | 36.2 | 4 | 12.6 | 7.4 | 0.571 | 14.9 | 1.69 | 3.78 | 1.89 | 1.7
Cc1c(C)c2c(c(C)c1NC(=O)/C=C\C(=O)O)CCC(C)(CCCC(C)CCCC(C)CCCC(C)C)O2 (configuration not stated) | 3.07 | 3.64 | 2.54 | 3.08 | 2.35 | 2.75 | 2.97 | 3.68 | 3.28 | 3.18 | 1.7 | 1.91 | 1.28 | 1.64 | 1.1 | 1.37 | 1.61 | 1.86 | 1.79 | 1.64
CC(C)N(C(=O)C12C3C4C5C3C1(C(=O)N(C(C)C)C(C)C)C5(C#N)C42)C(C)C (configuration not stated) | > 100 | > 100 | > 100 | > 100 | > 100 | > 100 | > 100 | > 100 | > 100 | > 100 | – | – | – | – | – | – | – | – | – | –
Cc1oc2nc[nH]c(=O)c2c1C(=O)/C=C/c1ccc(Cl)cc1 | 6.04 | 3.65 | 3.94 | 12.6 | 7.18 | 6.72 | 7.83 | 12.3 | 8.77 | 5.01 | 1.99 | 1.79 | 1.59 | 2.83 | 1.47 | 1.96 | 2.3 | 3.13 | 2.51 | 1.97
Cc1cc2cccnc2c2ncccc12 | 7.51 | 68.2 | 7.06 | > 100 | 17.2 | 5.32 | 10.3 | 31.9 | > 100 | 12.1 | 0.46 | 2.75 | 1.14 | 1.45 | 2.38 | 1.26 | 1.75 | 2.38 | 2.56 | 0.703
O=C(/C=C1\C(=O)N(Cc2ccc([N+](=O)[O-])cc2)c2ccccc21)c1ccc(OCCN2CCCCC2)cc1 | 2.38 | 2.93 | 1.43 | 6.32 | 2.37 | 3.11 | 2.57 | 3.14 | 2.89 | 3.09 | 1.16 | 1.57 | 0.366 | 2.12 | 1.07 | 1.59 | 1.25 | 1.66 | 1.53 | 1.72
Nc1ncnc2c1ncn2C1OC(CSC(F)(F)F)C(O)C1O (configuration not stated) | > 100 | > 100 | > 100 | > 100 | > 100 | > 100 | > 100 | > 100 | > 100 | > 100 | – | – | – | – | – | – | – | – | – | –
CN1CCN(CCCOc2cccc3nc(Nc4ccc(Cl)c(F)c4)ccc23)CC1 | 3.07 | 3.07 | 3.03 | 3.26 | 5.27 | 3.37 | 3.29 | 3.7 | 3.21 | 3.28 | 1.66 | 1.52 | 1.56 | 1.45 | 1.33 | 1.73 | 1.7 | 1.88 | 1.72 | 1.81
O=c1oc2cc(N=Cc3ccccc3Cl)ccc2c2ccccc12 | > 100 | > 100 | > 100 | > 100 | > 100 | > 100 | > 100 | > 100 | > 100 | > 100 | – | – | – | – | – | – | – | – | – | –
COc1ccc(C2=Nc3ccccc3SC(C)C2)cc1 (configuration not stated) | > 100 | > 100 | 33 | > 100 | > 100 | > 100 | > 100 | > 100 | > 100 | > 100 | – | – | – | – | – | – | – | – | – | –
N#CC(C#N)=Cc1c(-c2ccccc2)[nH]c2ccccc12 | > 55.9 | 35.9 | > 100 | 55.2 | > 100 | > 56.6 | 5.29 | > 70.6 | > 45.8 | 28 | 7.07 | 10.4 | 2.21 | 11.2 | 5.6 | 1.88 | 1.66 | 19.1 | 3.57 | 1.18
C=C1C(=O)O[C@H]2[C@H]1CC/C(Cn1cc(CNCCc3c[nH]c4ccc(Cl)cc34)nn1)=C\CC[C@@]1(C)O[C@@H]21 | 22.2 | 44.6 | 10 | > 100 | 3.05 | 31.2 | 6.5 | 26.1 | 25.2 | 20.9 | 10.2 | 20.3 | 3.31 | 67.5 | 1.34 | 13.7 | 2.44 | 10.3 | 10.7 | 7.59
CN1C(OCc2ccccc2)c2c(ccc3c2OCO3)C2C=Cc3cc4c(cc3C21)OCO4 (configuration not stated) | 2.83 | 2.99 | 1.44 | 2.96 | 2.3 | 2.1 | 1.97 | 2.92 | 1.63 | 2.84 | – | – | – | – | – | – | – | – | – | –
COc1cc(/C=N/Nc2ncnc3c2cnn3C(C)C)ccc1O | > 25 | > 25 | > 25 | > 25 | 4.99 | > 25 | > 25 | 18.7 | > 25 | > 25 | 5.95 | 17.3 | 8.02 | 6.5 | 0.357 | 11.8 | 8.47 | 6.82 | 8.08 | 8.11
Oc1c(C(Nc2cccc3ccccc23)c2ccccc2)ccc2cccnc12 (configuration not stated) | 28.6 | > 100 | 17.9 | > 100 | 36.3 | 8.48 | 19.1 | > 100 | > 100 | 16 | 3.55 | 4.56 | 2.86 | 4.9 | 2.95 | 2.01 | 3.79 | 6.58 | 4.14 | 2.42
COc1ccc(-c2nn(-c3ccc(NC(=O)c4ccc(Cl)c(C(F)(F)F)c4)cc3)cc2-c2ccncc2)cc1Cl | > 100 | > 43.4 | > 100 | 4.88 | 21.6 | 3.08 | > 100 | 1.44 | > 100 | 7.82 | 1.58 | 1.06 | 1.05 | 0.423 | 1.71 | 0.471 | 1.99 | 0.345 | 2.85 | 0.408
N#CNC(N)=NCCO | > 100 | > 100 | > 100 | > 100 | > 100 | > 100 | > 100 | > 100 | > 100 | > 100 | – | – | – | – | – | – | – | – | – | –
O=C1c2ccccc2NC(c2cc(Cl)cc(Cl)c2O)N1CCc1ccccn1 (configuration not stated) | > 100 | > 100 | > 100 | > 100 | > 100 | > 100 | > 100 | > 100 | > 100 | > 100 | – | – | – | – | – | – | – | – | – | –
COc1cc(-c2nn(-c3ccc(NC(=O)Nc4ccc(Cl)c(Cl)c4)cc3)cc2-c2ccncc2)ccc1Cl | > 100 | 7.65 | 11 | 22.3 | 11.9 | 6.87 | 8.63 | 39.7 | 17.9 | 15.1 | 3.35 | 2.62 | 3.08 | 3.79 | 2.35 | 2.56 | 3.02 | 3.44 | 3.94 | 2.84
CN(CCC#N)c1ccc(/C=C(\C#N)c2cccc(C(F)(F)F)c2)cc1 | > 100 | > 100 | > 100 | > 100 | 66.7 | > 100 | > 100 | 8.11 | > 100 | > 100 | 4.13 | 5.08 | 3.21 | 6.2 | 3.01 | 3.51 | 4.29 | 2.57 | 6.4 | 3.75
C=CCn1c(=O)c2cnc(Nc3ccc(N4CCN(C)CC4)cc3)nc2n1-c1ccc2c(n1)[C@@](O)(CC)CC2 | 36.8 | 3.82 | 16 | 13.8 | 30.5 | 5.81 | 2.86 | 2.44 | 21.6 | 35.7 | 0.161 | 0.593 | 0.415 | 1.29 | 0.494 | 0.225 | 0.333 | 0.332 | 3.68 | 1.11
Cc1csc(/C=N/NC(=O)c2nnn(-c3ccnc4c(C(F)(F)F)cccc34)c2C)c1 | > 100 | > 100 | > 100 | > 100 | > 100 | > 100 | > 100 | > 100 | > 100 | > 100 | 63.8 | > 100 | 36 | 63.5 | 55.8 | > 100 | 90.3 | > 100 | > 100 | 22.3
C=CCC1C(=O)C(C(=O)OC)N2CCc3c([nH]c4ccccc34)C12 (configuration not stated) | – | > 100 | > 100 | > 100 | > 100 | > 100 | > 100 | > 100 | > 100 | > 100 | – | – | – | – | – | – | – | – | – | –
COc1cc2ccccc2c2cc([N+](=O)[O-])oc12 | – | 1.09 | 10.3 | 32 | 4.54 | 0.608 | 5.41 | 0.452 | 0.695 | 7.14 | – | 0.294 | – | – | – | – | – | – | – | –
